Literature values, collected in patent US20030216337A1, “Composition and imaging methods for pharmacokinetic and pharmacodynamic evaluation of therapeutic delivery system” (priority 2002, published 2003).

For `O=c1[nH]c(=O)n([C@H]2C[C@H](O)[C@@H](CO)O2)cc1I` [IUdR, 5-Iodo-2′-deoxyuridine], the half-life (in humans, unincorporated IUdR / resulting compound) is listed as “less than minutes” and the “catabolism of unincorporated IUdR” value (unincorporated into DNA) is listed as “rapidly catabolized to iodouracil and/or dehalogenated”.
